Drawing on patent US20140235613A1, “SUBSTITUTED DIARYL AZETIDINE DERIVATIVES AS SPHINGOSINE RECEPTOR MODULATORS” (Allergan, Inc., priority 2013, published 2014), this text covers EC50 for two compounds.

The term EC50 denotes the midpoint of the concentration-response curve. A low value points to an effect from little substance.

In this assay the target is T1, human S1P1 receptor (Homo sapiens, UniProt P21453).
T1 construct: expressed in transfected cells; membranes used
The assay is described as follows: GTP γ35S binding assay for S1P1 activity. It counts as biochemical. As to conditions: Activity potency: S1P1 receptor from GTP γ35S; membranes; test concentration range 0.08 to 5,000 nM. How it is done: Compounds were tested for S1P1 activity using the GTP γ^35S binding assay. These compounds may be assessed for their ability to activate or block activation of the human S1P1 receptor in cells stably expressing the S1P1 receptor.
[…] binding was measured in the medium containing (mM) HEPES 25, pH 7.4, MgCl2 10, NaCl 100, dithitothreitol 0.5, digitonin 0.003%, 0.2 nM GTP γ^35S, and 5 μg membrane protein in a volume of 150 μl. Test compounds were included in the concentration range from 0.08 to 5,000 nM unless indicated otherwise. Membranes were incubated with 100 μM 5′-adenylylimmidodiphosphate for 30 min, and subsequently with 10 μM GDP for 10 min on ice.
Drug solutions and membrane were mixed, and then reactions were initiated by adding GTP γ^35S and continued for 30 min at 25° C. Reaction mixtures were filtered over Whatman GF/B filters under vacuum, and washed three times with 3 mL of ice-cold buffer (HEPES 25, pH7.4, MgCl2 10 and NaCl 100). Filters were dried and mixed with scintillant, and counted for ^35S activity using a β-counter. Agonist-induced GTP γ^35S binding was obtained by subtracting that in the absence of agonist. Binding data were analyzed using a non-linear regression method. In case of antagonist assay, the reaction mixture contained 10 nM S1P in the presence of test antagonist at concentrations ranging from 0.08 to 5000 nM.
For orientation: Binding of GTPγS marks nucleotide exchange on a G protein.

T1 sequence (P21453 whole entry): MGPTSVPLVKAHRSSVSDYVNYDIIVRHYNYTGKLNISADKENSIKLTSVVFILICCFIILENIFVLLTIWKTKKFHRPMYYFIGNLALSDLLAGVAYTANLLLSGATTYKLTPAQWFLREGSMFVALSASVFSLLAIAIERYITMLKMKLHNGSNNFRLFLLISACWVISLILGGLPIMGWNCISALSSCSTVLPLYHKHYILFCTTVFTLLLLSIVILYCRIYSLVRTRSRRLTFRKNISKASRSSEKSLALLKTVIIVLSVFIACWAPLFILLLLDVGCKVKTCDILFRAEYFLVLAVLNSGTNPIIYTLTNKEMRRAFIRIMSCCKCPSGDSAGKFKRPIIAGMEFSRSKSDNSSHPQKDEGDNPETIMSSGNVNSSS

`O=C(O)C1CN(Cc2ccc(CC/N=c3\scc(-c4ccccc4)n3-c3ccccc3)cc2)C1` [Compound 1, 1-[4-(2-{[(2Z)-3,4-diphenyl-1,3-thiazol-2(3H)-ylidene]amino}ethyl)benzyl]azetidine-3-carboxylic acid]: the concentration giving a half-maximal response (EC50) was found to be 297 nM. The value for `O=C(O)C1CN(Cc2ccc(CCSc3ncc(-c4ccccc4)n3-c3ccccc3)cc2)C1` [Compound 2, 1-(4-{2-[(1,5-diphenyl-1H-imidazol-2-yl)thio]ethyl}benzyl)azetidine-3-carboxylic acid] was 5600 nM.
